Measured values as given in patent US11124510B2, “Alkyl chain modified imidazoquinoline TLR7/8 agonist compounds and uses thereof” (Dynavax Technologies Corporation, priority 2017, dated 2021).

What was measured:
TLR7 = TLR7 (Homo sapiens (Human), UniProt Q9NYK1); test: TLR7 agonist bioactivity: induction of IFNα protein in pDC-enriched PBMC cultures (ELISA, 24 h); format: cell-based; settings: for EC50: IFNα induction, pDC-enriched human PBMC, 24 hours; for TLR7 (% of Compound No. 63-00 EC50 Value): EC50 expressed as percentage of EC50 of Compound No. 63-00; for fold loss of TLR7 agonist potency compared to Compound No. 63-00 (IMDQ): less potent than IMDQ
Experimental: Plasmacytoid dendritic cell (pDC)—enriched peripheral blood mononuclear cells (PBMCs) were prepared from the blood of a series of human donors (3-5 donors/experiment). PBMCs were isolated using Ficoll-Paque Premium® (GE Healthcare, Chicago Ill.) using methods well known to those in the art. pDCs were magnetically isolated from the total recovered PBMC population using CD304 (BDCA-4/Neuropilin-1) microbeads (Miltenyi Biotec, San Diego Calif.), according to the manufacturer's instructions. Isolated pDCs were then added back to between 1 and 2×10^8 of the corresponding donor's PBMCs for relative enrichment of this cell type. […] Culture supernatants were collected and interferon-alpha (IFNα) protein levels were measured by ELISA (MabTech, Cincinnati Ohio), according to the manufacturer's instructions.

TLR8 = TLR8 (Homo sapiens (Human), UniProt Q9NR97); test: TLR8 agonist bioactivity: induction of TNFα protein in monocyte cultures (ELISA, 24 h); format: cell-based; settings: for EC50: TNFα induction, human monocytes, 24 hours; for fold loss of TLR8 agonist potency compared to Compound No. 63-00 (IMDQ): less potent than IMDQ; for TLR8 (% of Compound No. 63-00 EC50 Value): EC50 expressed as percentage of EC50 of Compound No. 63-00; for fold increase of TLR8 agonist potency compared to Compound No. 63-00 (IMDQ): more potent than IMDQ
Experimental: Monocytes were magnetically isolated from PBMCs, prepared as described above, following labeling with CD14 microbeads (Miltenyi Biotec, San Diego Calif.), according to the manufacturer's instructions. […] Culture supernatants were collected and tumor necrosis factor alpha (TNFα) protein levels were measured by ELISA (MabTech, Cincinnati Ohio), according to the manufacturer's instructions.

Chain of TLR8 (Q9NR97 27-1041): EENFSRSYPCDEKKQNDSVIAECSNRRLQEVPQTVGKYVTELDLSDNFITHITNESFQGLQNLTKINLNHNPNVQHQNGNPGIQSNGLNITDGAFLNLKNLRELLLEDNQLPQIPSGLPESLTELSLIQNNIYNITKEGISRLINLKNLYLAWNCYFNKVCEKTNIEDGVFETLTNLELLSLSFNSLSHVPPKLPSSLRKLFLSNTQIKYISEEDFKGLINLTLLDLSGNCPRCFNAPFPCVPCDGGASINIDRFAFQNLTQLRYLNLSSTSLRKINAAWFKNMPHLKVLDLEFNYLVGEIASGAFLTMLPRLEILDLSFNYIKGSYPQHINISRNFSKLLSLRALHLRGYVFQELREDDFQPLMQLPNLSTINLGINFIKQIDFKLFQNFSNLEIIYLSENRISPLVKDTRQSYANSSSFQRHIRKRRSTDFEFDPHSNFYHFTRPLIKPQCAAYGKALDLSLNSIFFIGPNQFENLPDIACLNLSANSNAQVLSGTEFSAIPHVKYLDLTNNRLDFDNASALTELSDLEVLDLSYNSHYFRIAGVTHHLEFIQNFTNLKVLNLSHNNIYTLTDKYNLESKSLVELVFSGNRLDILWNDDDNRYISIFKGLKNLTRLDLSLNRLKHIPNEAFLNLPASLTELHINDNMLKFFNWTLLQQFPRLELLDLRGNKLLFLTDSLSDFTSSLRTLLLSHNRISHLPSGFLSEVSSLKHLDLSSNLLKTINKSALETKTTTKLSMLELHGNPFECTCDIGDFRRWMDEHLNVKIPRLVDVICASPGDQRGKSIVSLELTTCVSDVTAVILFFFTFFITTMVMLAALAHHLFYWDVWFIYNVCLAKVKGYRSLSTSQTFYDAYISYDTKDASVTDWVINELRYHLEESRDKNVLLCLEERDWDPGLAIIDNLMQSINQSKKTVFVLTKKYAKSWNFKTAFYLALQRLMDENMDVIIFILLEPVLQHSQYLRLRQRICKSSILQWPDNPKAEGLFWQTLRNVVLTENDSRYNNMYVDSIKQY
Chain of TLR7 (Q9NYK1 27-1049): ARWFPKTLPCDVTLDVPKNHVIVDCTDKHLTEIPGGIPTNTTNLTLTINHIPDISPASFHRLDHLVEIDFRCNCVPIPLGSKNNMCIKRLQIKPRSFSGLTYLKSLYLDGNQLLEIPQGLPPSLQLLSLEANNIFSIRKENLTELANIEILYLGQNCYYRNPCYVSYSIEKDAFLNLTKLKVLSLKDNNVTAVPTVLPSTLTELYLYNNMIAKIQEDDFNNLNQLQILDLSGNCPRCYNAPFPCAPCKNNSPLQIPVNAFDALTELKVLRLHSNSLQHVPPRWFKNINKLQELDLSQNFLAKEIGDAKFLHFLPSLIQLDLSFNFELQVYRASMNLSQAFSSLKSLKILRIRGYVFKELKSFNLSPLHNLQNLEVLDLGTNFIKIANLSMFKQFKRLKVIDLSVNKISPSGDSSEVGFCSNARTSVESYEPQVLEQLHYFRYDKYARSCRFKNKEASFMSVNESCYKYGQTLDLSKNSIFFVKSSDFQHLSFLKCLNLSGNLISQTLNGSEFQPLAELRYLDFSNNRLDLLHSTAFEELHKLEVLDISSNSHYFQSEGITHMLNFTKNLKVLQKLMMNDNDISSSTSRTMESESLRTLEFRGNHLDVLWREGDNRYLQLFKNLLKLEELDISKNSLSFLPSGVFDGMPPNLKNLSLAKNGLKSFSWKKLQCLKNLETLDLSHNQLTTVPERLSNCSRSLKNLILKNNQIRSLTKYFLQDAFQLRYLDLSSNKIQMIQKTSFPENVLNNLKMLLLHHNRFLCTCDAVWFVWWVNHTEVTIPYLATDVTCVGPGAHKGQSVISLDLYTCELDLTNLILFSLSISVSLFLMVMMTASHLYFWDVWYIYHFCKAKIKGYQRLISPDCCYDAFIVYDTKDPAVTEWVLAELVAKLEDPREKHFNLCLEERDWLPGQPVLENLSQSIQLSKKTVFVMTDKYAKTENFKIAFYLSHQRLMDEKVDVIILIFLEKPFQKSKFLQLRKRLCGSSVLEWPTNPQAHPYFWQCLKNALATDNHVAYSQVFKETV

Structure (SMILES)	EC50 (TLR7) [nM]	EC50 (TLR8) [nM]	fold loss of TLR8 agonist potency compared to Compound No. 63-00 (IMDQ) (TLR8)	TLR7 (% of Compound No. 63-00 EC50 Value) (TLR7)	TLR8 (% of Compound No. 63-00 EC50 Value) (TLR8) [%]	fold loss of TLR7 agonist potency compared to Compound No. 63-00 (IMDQ) (TLR7) [fold]	fold increase of TLR8 agonist potency compared to Compound No. 63-00 (IMDQ) (TLR8)
CCCCc1nc2c(N)nc3ccccc3c2n1Cc1ccc(CNCC2CC2)cc1 [Compound No. 63-38, 2-butyl-1-(4-(((cyclopropylmethyl)amino)methyl)benzyl)-1H-imidazo[4,5-c]quinolin-4-amine]	–	–	–	345%	37	–	–
CCCCc1nc2c(N)nc3ccccc3c2n1Cc1ccc(CNCC2CC2(C)C)cc1 (stereo not shown) [Compound No. 63-40, 2-butyl-1-(4-((((2,2-dimethylcyclopropyl)methyl)amino)methyl)benzyl)-1H-imidazo[4,5-c]quinolin-4-amine]	–	–	–	215%	51	–	–
CCCCCCCCCCCCCCCCNCc1ccc(Cn2c(CCCC)nc3c(N)nc4ccccc4c32)cc1 [Compound No. 63-32, 2-butyl-1-(4-((hexadecylamino)methyl)benzyl)-1H-imidazo[4,5-c]quinolin-4-amine, reference compound]	157	3100	–	–	–	–	–
CCCCc1nc2c(N)nc3ccccc3c2n1Cc1ccc(CNCC(C)(C)C2CCC2)cc1 [Compound No. 63-47, 2-butyl-1-(4-(((2-cyclobutyl-2-methylpropyl)amino)methyl)benzyl)-1H-imidazo[4,5-c]quinolin-4-amine]	–	–	–	900%	108	9.0	slightly improved to slightly inferior
CCCCc1nc2c(N)nc3ccccc3c2n1Cc1ccc(CNCC(C)(C)C2CC2)cc1 [Compound No. 63-41, 2-butyl-1-(4-(((2-cyclopropyl-2-methylpropyl)amino)methyl)benzyl)-1H-imidazo[4,5-c]quinoline-4-amine]	–	–	–	360%	43	–	–
CCCCCCCCNCc1ccc(Cn2c(CCCC)nc3c(N)nc4ccccc4c32)cc1 [Compound No. 63-20, 2-butyl-1-(4-((octylamino)methyl)benzyl)-1H-imidazo[4,5-c]quinolin-4-amine]	51	1220	–	–	–	–	–
CCCCc1nc2c(N)nc3ccccc3c2n1Cc1ccc(CNCCC2CCCC2)cc1 [Compound No. 63-36, 2-butyl-1-(4-(((2-cyclopentylethyl)amino)methyl)benzyl)-1H-imidazo[4,5-c]quinolin-4-amine]	11	117	–	1,085%	72	10.9	–
CCCCc1nc2c(N)nc3ccccc3c2n1Cc1ccc(CNCC2CC2C)cc1 (stereo not shown) [Compound No. 63-39, 2-butyl-1-(4-((((2-methylcyclopropyl)methyl)amino)methyl)benzyl)-1H-imidazo[4,5-c]quinoline-4-amine]	–	–	–	220%	48	–	–
CCCCCCCCCCCCCCCCCCNCc1ccc(Cn2c(CCCC)nc3c(N)nc4ccccc4c32)cc1 [Compound No. 63-29, 2-butyl-1-(4-((octadecylamino)methyl)benzyl)-1H-imidazo[4,5-c]quinolin-4-amine]	19	2770	over 12 fold	–	–	19	–
CCCCc1nc2c(N)nc3ccccc3c2n1Cc1ccc(CNCCC2CCC2)cc1 [Compound No. 63-35, 2-butyl-1-(4-(((2-cyclobutylethyl)amino)methyl)benzyl)-1H-imidazo[4,5-c]quinolin-4-amine]	12	70	–	715%	53	–	–
CCCCc1nc2c(N)nc3ccccc3c2n1Cc1ccc(CNCC2CC(C)C2)cc1 (stereo not shown) [Compound No. 63-46, 2-butyl-1-(4-((((3-methylcyclobutyl)methyl)amino)methyl)benzyl)-1H-imidazo[4,5-c]quinolin-4-amine]	–	–	–	400%	39	–	–
CCCCCCCNCc1ccc(Cn2c(CCCC)nc3c(N)nc4ccccc4c32)cc1 [Compound No. 63-19, 2-butyl-1-(4-((heptylamino)methyl)benzyl)-1H-imidazo[4,5-c]quinolin-4-amine]	24	752	–	–	–	–	–
CCCCc1nc2c(N)nc3ccccc3c2n1Cc1ccc(CNCCC2(C)CC2)cc1 [Compound No. 63-42, 2-butyl-1-(4-(((2-(1-methylcyclopropyl)ethyl)amino)methyl)benzyl)-1H-imidazo[4,5-c]quinolin-4-amine]	–	–	–	445%	85	–	slightly improved to slightly inferior

More lines, main results first:

EC50 (TLR7) [nM]	EC50 (TLR8) [nM]	fold loss of TLR8 agonist potency compared to Compound No. 63-00 (IMDQ) (TLR8)	Structure (SMILES)	TLR7 (% of Compound No. 63-00 EC50 Value) (TLR7)	TLR8 (% of Compound No. 63-00 EC50 Value) (TLR8) [%]	fold loss of TLR7 agonist potency compared to Compound No. 63-00 (IMDQ) (TLR7) [fold]	fold increase of TLR8 agonist potency compared to Compound No. 63-00 (IMDQ) (TLR8)
1	2640	10-26 fold	CCCCCCCCCCC(=O)NCc1ccc(Cn2c(CCCC)nc3c(N)nc4ccccc4c32)cc1 [Compound No. 63-07, N-(4-((4-amino-2-butyl-1H-imidazo[4,5-c]quinolin-1-yl)methyl)benzyl)undecanamide]	–	–	–	–
3	2170	10-26 fold	CCCCCCCCC(=O)NCc1ccc(Cn2c(CCCC)nc3c(N)nc4ccccc4c32)cc1 [Compound No. 63-05, N-(4-((4-amino-2-butyl-1H-imidazo[4,5-c]quinolin-1-yl)methyl)benzyl)nonanamide]	–	–	–	–
2	2750	10-26 fold	CCCCCCCCCC(=O)NCc1ccc(Cn2c(CCCC)nc3c(N)nc4ccccc4c32)cc1 [Compound No. 63-06, N-(4-((4-amino-2-butyl-1H-imidazo[4,5-c]quinolin-1-yl)methyl)benzyl)decanamide]	–	–	–	–
62	821	–	CCCCCCCCCCNCc1ccc(Cn2c(CCCC)nc3c(N)nc4ccccc4c32)cc1 [Compound No. 63-22, 2-butyl-1-(4-((decylamino)methyl)benzyl)-1H-imidazo[4,5-c]quinolin-4-amine]	–	–	–	–
3	2150	10-26 fold	CCCCCCCCCCCCCCCC(=O)NCc1ccc(Cn2c(CCCC)nc3c(N)nc4ccccc4c32)cc1 [Compound No. 63-31, N-(4-((4-amino-2-butyl-1H-imidazo[4,5-c]quinolin-1-yl)methyl)benzyl)palmitamide, reference compound]	–	–	–	–
3	1270	did not lose as much agonist activity	CCCCCCCCCCCC(=O)NCc1ccc(Cn2c(CCCC)nc3c(N)nc4ccccc4c32)cc1 [Compound No. 63-08, N-(4-((4-amino-2-butyl-1H-imidazo[4,5-c]quinolin-1-yl)methyl)benzyl)dodecanamide]	–	–	–	–
2	970	did not lose as much agonist activity	CCCCCCCCCCCCC(=O)NCc1ccc(Cn2c(CCCC)nc3c(N)nc4ccccc4c32)cc1 [Compound No. 63-09, N-(4-((4-amino-2-butyl-1H-imidazo[4,5-c]quinolin-1-yl)methyl)benzyl)tridecanamide]	–	–	–	–
68	947	–	CCCCCCCCCNCc1ccc(Cn2c(CCCC)nc3c(N)nc4ccccc4c32)cc1 [Compound No. 63-21, 2-butyl-1-(4-((nonylamino)methyl)benzyl)-1H-imidazo[4,5-c]quinolin-4-amine]	–	–	–	–
